According to patent US4425435A, “Cholesterol oxidase and process for producing same” (Takara Shuzo Co., Ltd., priority 1980, dated 1984):

Tests used:
cholesterol oxidase [1] = test: Substrate specificity: hydrogen peroxide decomposed with peroxidase, chromogen colour; assay type: biochemical, Basidiomycetes; conditions: hydrogen peroxide liberated from dehydrogenation of the 3β-position
cholesterol oxidase [2] = test: Effect of inhibitors etc. on activity of the present enzymes; assay type: biochemical, Basidiomycetes
Protocol: The enzymatic activity is determined by measurement of the hydrogen peroxide produced by the reaction of the enzyme solution on the substrate cholesterol. The method is based on the sequence of reactions as follows: Thus cholesterol is oxidized by cholesterol oxidase to cholest-5-en-3-one with the evolution of hydrogen peroxide, which couples with 4-aminoantipyrine and phenol in the presence of peroxidase to yield a quinoneimine dye with maximum absorption at 500 nm. To conduct this reaction there is used a reaction mixture, in a final volume of 3.0 ml, composed of 0.1 ml of the enzyme solution, 2 μmoles of cholesterol in 0.1 ml of ethanol, 250 μmoles of phosphate buffer, pH 7.0, 2.46 μmoles of 4-aminoantipyrine, 42 μmoles of phenol, and 24 units of peroxidase obtained from horseradish. The reaction is carried out at 37° C. for 10 minutes with shaking. One unit of cholesterol oxidase activity was defined as the amount of the enzyme which catalyzes the oxidation of 1 μmole of cholesterol per minute at 37° C.

Compound	enzyme acts on the sterol (substrate specificity) (cholesterol oxidase [1])	inhibition of the enzyme activity (cholesterol oxidase [2])	also measured
C[C@@H](O)[C@H]1CC[C@H]2[C@@H]3CC[C@H]4C[C@@H](O)CC[C@]4(C)[C@H]3CC[C@]12C [5α-pregnan-3β,20β-diol]	act on		
[Ba+2] [Ba^2+]		do not inhibit	
[Ca+2] [Ca^2+]		do not inhibit	
[Co+2] [Co^2+]		do not inhibit	
[Cu+2] [Cu^2+]		markedly inhibited	
O=C(O)CN(CCN(CC(=O)O)CC(=O)O)CC(=O)O [EDTA]		not inhibitory	
[Fe+2] [Fe^2+]		do not inhibit	
[Hg+2] [Hg^2+]		markedly inhibited	
[Mg+2] [Mg^2+]		do not inhibit	
[Mn+2] [Mn^2+]		do not inhibit	
[Ni+2] [Ni^2+]		do not inhibit	
CC(C)[C@H](C)CC[C@@H](C)[C@H]1CC[C@H]2[C@@H]3CC=C4C[C@@H](O)CC[C@]4(C)[C@H]3CC[C@]12C [campesterol]	act on		
CC(C)CCC[C@@H](C)[C@H]1CC[C@H]2[C@@H]3CC=C4C[C@@H](O)CC[C@]4(C)[C@H]3CC[C@]12C [cholesterol]	act on		
C[C@]12CC[C@H](O)CC1=CC[C@@H]1[C@@H]2CC[C@]2(C)C(=O)CC[C@@H]12 [dehydroepiandrosterone]	act on		
CC(C)[C@@H](C)/C=C/[C@@H](C)[C@H]1CC[C@H]2C3=CC=C4C[C@@H](O)CC[C@]4(C)[C@H]3CC[C@]12C [ergosterol]	act on		
N[C@@H](CCC(=O)N[C@@H](CS)C(=O)NCC(=O)O)C(=O)O [glutathione]			prevention of inhibition caused by Cu^2+ and Hg^2+ (cholesterol oxidase [2]): almost completely prevented
c1cnc2c(c1)ccc1cccnc12 [o-phenanthroline]		not inhibitory	
CC(=O)[C@H]1CC[C@H]2[C@@H]3CC=C4C[C@@H](O)CC[C@]4(C)[C@H]3CC[C@]12C [pregnenolone]	act on		
CC[C@H](/C=C/[C@@H](C)[C@H]1CC[C@H]2[C@@H]3CC=C4C[C@@H](O)CC[C@]4(C)[C@H]3CC[C@]12C)C(C)C [stigmasterol]	act on		
c1ccc(-c2ccccn2)nc1 [α,α'-dipyridyl]		not inhibitory	
CC(C)CCC[C@@H](C)[C@H]1CC[C@H]2[C@@H]3CC[C@H]4C[C@@H](O)CC[C@]4(C)[C@H]3CC[C@]12C [β-cholestanol]	act on		
CC[C@H](CC[C@@H](C)[C@H]1CC[C@H]2[C@@H]3CC=C4C[C@@H](O)CC[C@]4(C)[C@H]3CC[C@]12C)C(C)C [β-cytosterol]	act on		
Oc1cccc2cccnc12 [β-hydroxyquinoline]		not inhibitory	
Triton X-100			inhibition of the enzyme activity by detergent (cholesterol oxidase [2]; 0.01% of Triton X-100): inhibit almost completely
